Measured values taken from patent US20240287037A1, “CYCLOALKYL COMPOUNDS AND PHARMACEUTICAL COMPOSITIONS THAT MODULATE IKZF2” (Plexium, Inc., priority 2021, published 2024).
Like-named read-outs stand apart in the source and are kept apart here.

Assays:
IKZF2 (Helios) = IKZF2 (Helios) (Homo sapiens (Human), UniProt Q96SW2+Q9UKS7); assay: IKZF2 reporter degradation assay (HEK 293T IKZF2-mNeonGreen reporter cell line); format: cell-based; details: 24 hour incubation; for inhibition at 1 µM: HEK-293T, 24 h
Source text: (§1) Polycistronic plasmids were constructed for the mammalian expression of fluorescent reporter fusions of human transcription factors IKZF1 (Ikaros), IKZF2 (Helios), and IKZF3 (Aiolos). The respective protein sequences had their C-terminal end joined to a GGGGS linker repeated three times followed by mNeonGreen, P2A sequence, and mScarlet. The DNA sequences of the open reading frames are as follows:
(§2) IKZF1, IKZF2, and IKZF3 constructs were cloned into the UCOE Hygromycin expression vectors (Millipore Sigma). Reporter constructs were transfected using cationic lipid reagents into adherent HEK 293T cells and stable integrants were selected by treatment with 200 μg/mL hygromycin B. Clonal populations were obtained from the population of stable integrants either by limiting dilution or fluorescence activated cell sorting.
(§3) The clonal stable cell lines were maintained under constant 200 μg/mL hygromycin B selection while being passaged for use in the degradation assays. […] The fluorescence intensity of the IKZF1/2/3-mNeonGreen (FITC channel) and mScarlet (PE channel) reporters were routinely analyzed by flow cytometry to confirm consistent expression levels between experiments.
(§4) The IKZF1/IKZF2/IKZF3 degradation assays were carried out by harvesting the HEK 293T reporter cell lines and resuspending the cells in media formulated for reduced background fluorescence (FluoroBrite; Thermo Fisher). The respective cell lines were seeded at a density of 4000 cells/well into black-walled 384-well optical grade assay tissue culture plates. The cells were incubated overnight at 37° C. to allow for attachment to the assay plate. Dilutions of the compounds were prepared in DMSO from 10 mM compound stocks. The assay plates were treated with appropriate concentrations of the compounds by dispensing the DMSO dilutions in quadruplicate wells with an upper limit of 0.5% final DMSO.
(§5) After 24 hour incubation with the compounds, the assay plates were imaged on an ImageXpress Pico microscopy system (cells maintained at 37° C. during imaging) to obtain the fluorescent readouts. The assay plates were imaged in the FITC and Tetramethylrhodamine (TRITC) channels to obtain the mNeonGreen fluorescence intensity (reporter degradation data) and mScarlet fluorescence intensity (for cell segmentation). 293T-IKZF1 and 293T-IKZF3 reporter cell lines were imaged with exposures of 500 milliseconds (ms) for both FITC and TRITC channels, while the 293T-IKZF2 reporter cell line was imaged with exposures of 1000 ms for FITC and 1250 ms for TRITC. The resulting data was analyzed with Cell Reporter Xpress software using the 2-channel cell scoring analysis with a “percent positive” readout. The TRITC channel was selected for the “nuclei” segmentation with a threshold of 20 while the FITC channel was selected for the “Marker 1” segmentation and a threshold of 100 for the IKZF and IKZF3 reporter lines. […] The minimum segmentation width was set to 6 micrometers and the maximum segmentation width was set to 15 micrometers for all cell lines. The DC50 calculations were determined by regression to best fit four-parameter logistic curves using GraphPad Prism.

[1] = molecular target: human E3 ligase component cereblon (CRBN) (Homo sapiens (Human), UniProt Q96SW2); assay: Cereblon (CRBN) target engagement, NanoBRET TE Intracellular E3 Ligase Assay in transfected HEK-293T cells
Procedure: HEK-293T cells were harvested ca. 75% confluent with trypsin and plated (500,000 cells/well) in a 6-well tissue culture plate in 2 mL of Dulbecco's Modified Eagle Medium (DMEM)^+10% Fetal Bovine Serum (FBS) and incubated overnight at 37° C.
The NanoLue-CRBN fusion vector (Nluc-CRBN; Promega) contains the coding region of human E3 ligase component cereblon (CRBN) fused to the C-terminus of the NanoLuc luciferase coding region. A mixture of 10 ng Nluc-CRBN and 990 ng DDB1 Expression Vector (Promega) was added to 125 μL Opti-Minimum Essential Medium (Opti-MEM™; Thermo Fisher) along with 2 μL P3000 reagent (Thermo Fisher) in a 1.5 mL epppendorf tube. This solution was added to Lipofectamine 3000 transfection reagent (5 μL; Thermo Fisher) in Opti-MEM (125 μL), mixed well, and incubated for 15 minutes at room temperature. The transfection mixture was added dropwise to cells and incubated overnight at 37° C., 5% CO2. Following transfection, cells were washed once with PBS, and trypsin (250 μL) was added and incubated 30-45 see to dislodge cells. Complete media (2 mL) was added to resuspend cells to form a single cell suspension. Cells were centrifuged at 320×g for 5 min at room temperature, the supernatant was removed, and the cell pellet resuspended in Opti-MEM (3 mL; wash step repeated ×2). After final resuspension in 5 mL Opti-MEM, cells were counted and resuspended at 200,000 cells/mL in Opti-MEM.
Cereblon target engagement was monitored by Bioluminescence Resonance Energy Transfer (BRET) in transfected HEK-293T cells using the NanoBRET TE Intracellular E3 Ligase Assay (Promega). Briefly, 384-well plates (white opaque plates, Corning 3574, low binding surface) were seeded with transfected HEK-293T cells (38 μl/well). 2 μL of 10 μM CRBN tracer (diluted 1:5 in Tracer Dilution Buffer) was added to each well. Plates were centrifuged at 320×g for 1 min at room temperature. […] Plates were shaken for 2 minutes on a microplate shaker to mix compounds. Plates were centrifuged at 320×g for 1 min at room temperature, and subsequently incubated for 2 hours at 37° C.
After incubation, plates were allowed to cool to room temperature for 15 minutes. 20 μL of 3X Complete NanoBRET™ Nano-Glo® Substrate plus Inhibitor Solution (Promega, 1:166 Substrate and 1:500 dilution of Extracellular NanoLuc® Inhibitor diluted in Opti-MEM) were added to each well, Plates were incubated with shaking at room temperature for 3 minutes covered with foil. Plates were read on a CLARIOstar microplate reader (BMG LabTech), measuring at 450 nm (donor emission) and 610 nm (acceptor emission). The IC50 values were determined by regression to best fit four-parameter logistic curves using GraphPad Prism.

IKZF3 (Aiolos) = IKZF3 (Aiolos) (Homo sapiens (Human), UniProt Q96SW2+Q9UKT9); assay: IKZF3 reporter degradation assay (HEK 293T IKZF3-mNeonGreen reporter cell line); format: cell-based; details: HEK 293T reporter cells, 24 hour incubation
Source text: as §1, §2, §3, §4, §5

GSPT1 = GSPT1 (Homo sapiens (Human), UniProt P15170+Q96SW2); assay: GSPT1 reporter degradation assay (HEK293 hGSPT1 HiBiT-tagged cells); format: cell-based; details: 24 hour incubation
Procedure: HEK293_hGSPT1_HiBiT-tagged cells were generated using CRISPR-Cas12a technology. Briefly, ˜400,000 HEK293 cells were transiently co-transfected with precomplexed ribonuclear proteins (RNPs) consisting of […] of crRNA (IDT), […] of Cas12a protein (IDT), 3 μg of ssODN donor (IDT; AltRTM modifications), 78 pmol of electroporation enhancer (IDT), and 200 ng of pMaxGFP (Lonza). The transfection was performed via nucleofection (Lonza, 4D-Nucleofector X-unit) using solution P3 and program CM-130 in a (20 μL) cuvette. Five days post-nucleofection, cells were single-cell-sorted for GFP+ (transfected) cells by FACs in 96-well plates and clonally selected. Clones were screened and verified for the desired modification via targeted deep sequencing using gene-specific primers with partial Illumina adapter overhangs as previously described. In brief, clonal cell pellets were harvested, lysed, and used to generate gene-specific amplicons with partial Illumina adapters in PCR #1. Amplicons were indexed in PCR #2 and pooled with other targeted amplicons for other loci to create sequence diversity. Additionally, 10% PhiX sequencing control V3 (Illumina) was added to the pooled amplicon library prior to running the sample on a Miseq Sequencer System (Illumina) to generate paired 2×250 bp reads. Samples were demultiplexed using the index sequences, fastq files were generated, and NGS analysis was performed using CRIS.py.
The GSTP1 degradation assay was carried out by harvesting the HEK 293T reporter cell lines and resuspending the cells in media formulated for reduced background fluorescence (FluoroBrite; Thermo Fisher). The respective cell lines were seeded at a density of 8,000 cells/well into white-opaque 384-well optical grade assay tissue culture plates (Greiner 781080-20). The cells were incubated overnight at 37° C. to allow for attachment to the assay plate. Dilutions of the compounds were prepared in DMSO from 10 mM compound stocks. […] Plates were centrifuged at 320×g for 2 minutes at room temperature, and subsequently incubated at 37° C.
After 24 hour incubation with the compounds, the plates were allowed to cool to room temperature for 10 minutes. 30 μL of HiBiT lytic buffer+1:50 HiBiT substrate Solution were added to each well. Plates were centrifuged at 320×g for 2 minutes at room temperature and then incubated with shaking at room temperature for 10 minutes covered with foil. Plates were read on a CLARIOstar microplate reader (BMG LabTech), measuring at 450 nm (donor emission) and 610 nm or 630 nm (acceptor emission). The DC50 values were determined by regression to best fit four-parameter logistic curves using GraphPad Prism.

IKZF1 (Ikaros) = IKZF1 (Ikaros) (Homo sapiens (Human), UniProt Q13422+Q96SW2); assay: IKZF1 reporter degradation assay (HEK 293T IKZF1-mNeonGreen reporter cell line); format: cell-based; details: HEK 293T reporter cells, 24 hour incubation
Source text: as §1, §2, §3, §4, §5

[2] = Table 3, HEK 293T reporter cells
[3] = second (untitled) table after Table 3
[4] = Table 3, 2 hours at 37° C., read-out: CRBN Binding EC50
[5] = second (untitled) table after Table 3, read-out: CRBN Binding EC50

Chain of human E3 ligase component cereblon (CRBN) (Q96SW2 whole entry): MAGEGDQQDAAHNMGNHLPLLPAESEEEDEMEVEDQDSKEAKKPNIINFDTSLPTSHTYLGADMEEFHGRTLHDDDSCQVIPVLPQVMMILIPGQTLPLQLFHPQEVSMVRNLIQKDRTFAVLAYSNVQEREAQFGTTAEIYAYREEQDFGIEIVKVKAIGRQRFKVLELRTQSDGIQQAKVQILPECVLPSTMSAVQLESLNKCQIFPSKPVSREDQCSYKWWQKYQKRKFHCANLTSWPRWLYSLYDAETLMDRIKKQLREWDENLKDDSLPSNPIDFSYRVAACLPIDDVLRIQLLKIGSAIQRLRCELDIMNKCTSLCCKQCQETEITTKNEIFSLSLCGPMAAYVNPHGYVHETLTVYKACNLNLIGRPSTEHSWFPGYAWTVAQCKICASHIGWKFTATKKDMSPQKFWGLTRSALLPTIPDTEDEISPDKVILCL
Chain of human E3 ligase component cereblon (CRBN) (Q16531 whole entry partner): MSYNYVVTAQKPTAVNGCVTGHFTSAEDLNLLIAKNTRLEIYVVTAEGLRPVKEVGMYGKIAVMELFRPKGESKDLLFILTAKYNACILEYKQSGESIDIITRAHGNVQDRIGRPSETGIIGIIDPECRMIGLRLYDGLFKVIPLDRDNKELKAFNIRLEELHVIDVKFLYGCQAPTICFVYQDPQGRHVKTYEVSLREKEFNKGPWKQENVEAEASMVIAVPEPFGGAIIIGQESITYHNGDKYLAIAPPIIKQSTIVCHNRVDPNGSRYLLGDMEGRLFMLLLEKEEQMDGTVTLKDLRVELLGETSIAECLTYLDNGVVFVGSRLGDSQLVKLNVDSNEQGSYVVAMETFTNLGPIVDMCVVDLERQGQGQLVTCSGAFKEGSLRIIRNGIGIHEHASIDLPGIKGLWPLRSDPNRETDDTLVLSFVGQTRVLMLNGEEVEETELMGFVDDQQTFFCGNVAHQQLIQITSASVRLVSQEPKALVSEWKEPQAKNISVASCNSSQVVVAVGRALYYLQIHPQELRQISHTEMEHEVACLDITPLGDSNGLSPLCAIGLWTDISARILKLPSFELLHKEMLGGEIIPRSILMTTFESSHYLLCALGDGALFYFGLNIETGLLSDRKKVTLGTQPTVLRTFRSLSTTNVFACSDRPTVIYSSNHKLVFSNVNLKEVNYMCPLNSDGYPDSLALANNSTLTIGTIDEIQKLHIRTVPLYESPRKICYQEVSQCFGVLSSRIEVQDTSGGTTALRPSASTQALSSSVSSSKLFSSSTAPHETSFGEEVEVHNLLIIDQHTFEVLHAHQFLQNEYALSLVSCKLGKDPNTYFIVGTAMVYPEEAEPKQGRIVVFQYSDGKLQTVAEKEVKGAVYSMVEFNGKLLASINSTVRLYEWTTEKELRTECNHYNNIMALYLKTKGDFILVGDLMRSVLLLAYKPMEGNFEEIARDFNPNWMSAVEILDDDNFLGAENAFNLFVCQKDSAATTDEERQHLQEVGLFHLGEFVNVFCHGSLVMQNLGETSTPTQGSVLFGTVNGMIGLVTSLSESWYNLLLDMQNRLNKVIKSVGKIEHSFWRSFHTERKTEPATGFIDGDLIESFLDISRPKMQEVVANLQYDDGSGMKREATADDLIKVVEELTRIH
Chain of IKZF2 (Helios) (Q9UKS7 whole entry, the tested form may be a part): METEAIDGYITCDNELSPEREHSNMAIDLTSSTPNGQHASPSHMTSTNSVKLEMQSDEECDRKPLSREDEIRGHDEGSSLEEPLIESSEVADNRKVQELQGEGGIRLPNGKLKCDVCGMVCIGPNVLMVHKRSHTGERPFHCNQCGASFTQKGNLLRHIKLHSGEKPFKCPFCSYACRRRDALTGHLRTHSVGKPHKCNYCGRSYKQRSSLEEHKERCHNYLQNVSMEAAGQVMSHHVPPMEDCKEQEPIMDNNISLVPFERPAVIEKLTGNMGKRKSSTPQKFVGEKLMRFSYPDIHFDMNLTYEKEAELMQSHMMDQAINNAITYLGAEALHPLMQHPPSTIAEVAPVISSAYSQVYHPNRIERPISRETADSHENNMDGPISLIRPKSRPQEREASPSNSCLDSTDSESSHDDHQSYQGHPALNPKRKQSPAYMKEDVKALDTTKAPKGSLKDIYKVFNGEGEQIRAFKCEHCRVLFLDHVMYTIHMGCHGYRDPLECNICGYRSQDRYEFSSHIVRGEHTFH
Chain of IKZF2 (Helios) (Q96SW2 whole entry, the tested form may be a part): as the sequence (Q96SW2 whole entry) above
Chain of IKZF2 (Helios) (Q16531 whole entry partner, the tested form may be a part): as the sequence (Q16531 whole entry partner) above
Chain of IKZF3 (Aiolos) (Q9UKT9 whole entry): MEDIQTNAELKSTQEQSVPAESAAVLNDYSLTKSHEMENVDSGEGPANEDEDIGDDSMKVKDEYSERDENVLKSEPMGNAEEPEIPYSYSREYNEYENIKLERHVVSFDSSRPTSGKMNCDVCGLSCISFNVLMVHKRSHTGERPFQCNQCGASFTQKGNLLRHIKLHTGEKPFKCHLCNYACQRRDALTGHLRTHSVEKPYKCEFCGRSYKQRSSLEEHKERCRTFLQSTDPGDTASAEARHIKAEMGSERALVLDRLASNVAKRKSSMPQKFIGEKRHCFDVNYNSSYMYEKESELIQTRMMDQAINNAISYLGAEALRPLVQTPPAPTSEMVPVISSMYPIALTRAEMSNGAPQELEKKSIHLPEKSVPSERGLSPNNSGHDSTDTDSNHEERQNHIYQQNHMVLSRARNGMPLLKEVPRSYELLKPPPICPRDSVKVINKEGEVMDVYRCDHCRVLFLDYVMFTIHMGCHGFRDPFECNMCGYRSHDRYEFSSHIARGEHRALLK
Chain of IKZF3 (Aiolos) (Q96SW2 whole entry): as the sequence (Q96SW2 whole entry) above
Chain of IKZF3 (Aiolos) (Q16531 whole entry partner): as the sequence (Q16531 whole entry partner) above
Chain of GSPT1 (P15170 whole entry): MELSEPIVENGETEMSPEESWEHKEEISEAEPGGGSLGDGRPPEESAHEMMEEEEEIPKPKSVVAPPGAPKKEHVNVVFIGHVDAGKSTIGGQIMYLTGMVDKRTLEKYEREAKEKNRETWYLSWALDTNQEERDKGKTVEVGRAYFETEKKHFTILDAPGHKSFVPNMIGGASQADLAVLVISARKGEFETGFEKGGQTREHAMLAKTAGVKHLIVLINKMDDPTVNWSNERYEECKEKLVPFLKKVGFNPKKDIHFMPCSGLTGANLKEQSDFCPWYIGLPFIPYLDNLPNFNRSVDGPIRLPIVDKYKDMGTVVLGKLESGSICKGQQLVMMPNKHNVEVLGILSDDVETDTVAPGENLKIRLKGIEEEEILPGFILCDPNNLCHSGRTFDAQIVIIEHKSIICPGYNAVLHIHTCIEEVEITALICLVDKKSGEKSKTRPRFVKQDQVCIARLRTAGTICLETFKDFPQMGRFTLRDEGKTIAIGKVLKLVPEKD
Chain of GSPT1 (Q96SW2 whole entry): as the sequence (Q96SW2 whole entry) above
Chain of GSPT1 (Q16531 whole entry partner): as the sequence (Q16531 whole entry partner) above
Chain of IKZF1 (Ikaros) (Q13422 whole entry): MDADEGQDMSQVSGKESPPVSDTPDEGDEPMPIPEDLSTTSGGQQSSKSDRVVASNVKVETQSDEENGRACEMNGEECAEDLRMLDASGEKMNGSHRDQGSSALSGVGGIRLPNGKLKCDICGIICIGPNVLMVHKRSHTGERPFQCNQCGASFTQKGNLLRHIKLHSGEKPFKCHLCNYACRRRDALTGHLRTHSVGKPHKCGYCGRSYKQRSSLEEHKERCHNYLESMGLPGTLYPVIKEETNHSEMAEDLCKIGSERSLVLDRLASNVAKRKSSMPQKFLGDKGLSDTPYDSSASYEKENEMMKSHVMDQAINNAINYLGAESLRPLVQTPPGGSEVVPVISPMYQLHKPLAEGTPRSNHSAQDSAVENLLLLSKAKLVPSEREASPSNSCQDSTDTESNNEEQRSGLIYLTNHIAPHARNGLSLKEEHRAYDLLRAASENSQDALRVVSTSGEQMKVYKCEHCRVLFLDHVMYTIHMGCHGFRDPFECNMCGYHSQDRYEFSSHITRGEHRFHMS
Chain of IKZF1 (Ikaros) (Q96SW2 whole entry): as the sequence (Q96SW2 whole entry) above
Chain of IKZF1 (Ikaros) (Q16531 whole entry partner): as the sequence (Q16531 whole entry partner) above

Structure (SMILES) | inhibition at 1 µM (IKZF2 (Helios); [2]) [%] | inhibition at 1 µM (IKZF2 (Helios); [3]) [%] | EC50 [1, 4] [µM] | EC50 [1, 5] [µM] | further results
COC1CCC(C2CN([C@H]3CCCC[C@@H]3Oc3ccc4c(c3)CN(C3CCC(=O)NC3=O)C4=O)C2)CC1 (stereo partly drawn) [Compound 7, 3-(5-(((1S,2S)-2-(3-((cis)-4-methoxycyclohexyl)azetidin-1-yl)cyclohexyl)oxy)-1-oxoisoindolin-2-yl)piperidine-2,6-dione] | 80.1 |  |  |  | IKZF2% Degradation @ 1 μM (IKZF2 (Helios); [3]): 80.1%
COC1CCC(C2CN([C@H]3CCCC[C@@H]3Oc3ccc4c(c3)CN(C3CCC(=O)NC3=O)C4=O)C2)CC1 (stereo partly drawn) [Compound 8, 3-(5-(((1S,2S)-2-(3-((trans)-4-methoxycyclohexyl)azetidin-1-yl)cyclohexyl)oxy)-1-oxoisoindolin-2-yl)piperidine-2,6-dione] |  | 80.1 |  |  | IKZF2% Degradation @ 1 μM (IKZF2 (Helios); [2]): 80.1%
COC1CCC(C2CN([C@H]3CCC[C@@H]3Oc3ccc4c(c3)CN(C3CCC(=O)NC3=O)C4=O)C2)CC1 (stereo partly drawn) [Compound 9, 3-(5-(((1S,2S)-2-(3-((cis)-4-methoxycyclohexyl)azetidin-1-yl)cyclopentyl)oxy)-1-oxoisoindolin-2-yl)piperidine-2,6-dione] | 77.7 | 77.7 |  |  | 
COC1CCC(C2CN([C@H]3CCC[C@@H]3Oc3ccc4c(c3)CN(C3CCC(=O)NC3=O)C4=O)C2)CC1 (stereo partly drawn) [Compound 10, 3-(5-(((1S,2S)-2-(3-((trans)-4-methoxycyclohexyl)azetidin-1-yl)cyclopentyl)oxy)-1-oxoisoindolin-2-yl)piperidine-2,6-dione] |  |  |  |  | IKZF2% Degradation @ 1 μM (IKZF2 (Helios); [2]): 80.8%; IKZF2% Degradation @ 1 μM (IKZF2 (Helios); [3]): 80.8%
COC1CCC(C2CN([C@H]3CCCC[C@@H]3Oc3ccc4c(c3)CN(C35CC(C3)C(=O)NC5=O)C4=O)C2)CC1 (stereo partly drawn) [Compound 11, 1-(5-(((1S,2S)-2-(3-((cis)-4-methoxycyclohexyl)azetidin-1-yl)cyclohexyl)oxy)-1-oxoisoindolin-2-yl)-3-azabicyclo[3.1.1]heptane-2,4-dione] |  |  | > 10 | > 10 | 
COC1CCC(C2CN([C@H]3CCC[C@@H]3Oc3ccc4c(c3)CN(C35CC(C3)C(=O)NC5=O)C4=O)C2)CC1 (stereo partly drawn) [Compound 12, 1-(5-(((1S,2S)-2-(3-((cis)-4-methoxycyclohexyl)azetidin-1-yl)cyclopentyl)oxy)-1-oxoisoindolin-2-yl)-3-azabicyclo[3.1.1]heptane-2,4-dione] |  |  | > 10 | > 10 | 
O=C1NC(=O)C2(N3Cc4cc(O[C@H]5CCC[C@@H]5N5CC(C6CCC(F)(F)CC6)C5)ccc4C3=O)CC1C2 [Compound 14, 1-(5-(((1S,2S)-2-(3-(4,4-difluorocyclohexyl)azetidin-1-yl)cyclopentyl)oxy)-1-oxoisoindolin-2-yl)-3-azabicyclo[3.1.1]heptane-2,4-dione] |  |  | > 10 | > 10 | 
O=C1NC(=O)C2(N3Cc4cc(O[C@H]5CCCC[C@@H]5N5CC(C6CCC(F)(F)CC6)C5)ccc4C3=O)CC1C2 [Compound 15, 1-(5-(((1S,2S)-2-(3-(4,4-difluorocyclohexyl)azetidin-1-yl)cyclohexyl)oxy)-1-oxoisoindolin-2-yl)-3-azabicyclo[3.1.1]heptane-2,4-dione] |  |  | 6.21 | 6.21 | 
N#CC1(C2CN([C@H]3CCCC[C@@H]3Oc3ccc4c(c3)CN(C3CCC(=O)NC3=O)C4=O)C2)CCC1 (stereo partly drawn) [Compound 23, 1-(1-((1S,2S)-2-((2-(2,6-dioxopiperidin-3-yl)-1-oxoisoindolin-5-yl)oxy)cyclohexyl)azetidin-3-yl)cyclobutane-1-carbonitrile] | 87.4 | 87.4 |  |  | DC50 (IKZF2 (Helios); HEK 293T reporter cells): 0.003 µM; DC50 (IKZF3 (Aiolos)): > 30 µM; DC50 (GSPT1): > 30 µM; DC50 (IKZF1 (Ikaros)): > 30 µM
